Like-named read-outs stand apart in the source and are kept apart here.
What was measured:
[1] = target: CLK4 (Homo sapiens, UniProt Q9HAZ1); test: In vitro kinase inhibition, ADP-Glo enzyme activity assay; assay type: biochemical; details: read-out: Enzymatic activity (IC50) CLK4
Description: (§1) (1) The positive drug was diluted in a 4-fold gradient with DMSO in a dilution plate, with the final initial concentrations of the compound being 1 & 0.02 & 0.1 μM.
(§2) (2) The compound was diluted 50-fold into the 1× kinase reaction buffer and oscillated on an oscillator for 20 min.
(§3) (3) The 2× kinase was prepared using the 1× enzyme reaction buffer.
(§4) (4) 2 μL of the kinase was added per well to the reaction plate.
(§5) (5) 1 μL of the compound diluted in the buffer was added to each well. The plate was sealed with a plate-sealing film, centrifuged at 1000 rpm for 60 s, and incubated at 25° C. for 10 min.
(§6) (6) 4× ATP & sub mixture was prepared using the 1× enzyme reaction buffer, and 1 μL of the 4× ATP & sub mixture was added to the reaction plate.
(§7) (7) The plate was sealed with a plate-sealing film, centrifuged at 1000 rpm for 60 s, and incubated at 25° C. for 60 min.
(§8) (8) 4 μL of ADP-Glo was transferred to the 384 reaction plate, and the plate was centrifuged at 1000 rpm for 1 min and incubated at 25° C. for 40 min.
(§9) (9) 8 μL of Detection solution was transferred to the 384 reaction plate, and the plate was centrifuged at 1000 rpm for 1 min and incubated at 25° C. for 40 min.
(§10) (10) The RLU (relative luminescence unit) signal was read using a BMG multifunctional microplate reader, and the signal intensity was used to characterize the degree of the kinase activity.
(§11) • (1) the ratio of each well was calculated; • (2) the inhibition rate was calculated as follows:
(§12) compound inhibition rate (% inh)=100%−(compound−positive control)/(negative control−positive control)×100% • (3) the IC50 was calculated, and the inhibition curves of the compounds were plotted: • the following nonlinear fitting formula was used to obtain the IC50 (half maximal inhibitory concentration) of the compounds: Graphpad 7.0 software was used for data analysis.
(§13) [formula] • X: log value of the concentration of the compound, Y: inhibition rate (% inhibition).

[2] = target: CLK1 (Homo sapiens, UniProt P49759); test: as above; assay type: biochemical; details: read-out: Enzymatic activity (IC50) CLK1
CLK1, sequence (P49759 whole entry): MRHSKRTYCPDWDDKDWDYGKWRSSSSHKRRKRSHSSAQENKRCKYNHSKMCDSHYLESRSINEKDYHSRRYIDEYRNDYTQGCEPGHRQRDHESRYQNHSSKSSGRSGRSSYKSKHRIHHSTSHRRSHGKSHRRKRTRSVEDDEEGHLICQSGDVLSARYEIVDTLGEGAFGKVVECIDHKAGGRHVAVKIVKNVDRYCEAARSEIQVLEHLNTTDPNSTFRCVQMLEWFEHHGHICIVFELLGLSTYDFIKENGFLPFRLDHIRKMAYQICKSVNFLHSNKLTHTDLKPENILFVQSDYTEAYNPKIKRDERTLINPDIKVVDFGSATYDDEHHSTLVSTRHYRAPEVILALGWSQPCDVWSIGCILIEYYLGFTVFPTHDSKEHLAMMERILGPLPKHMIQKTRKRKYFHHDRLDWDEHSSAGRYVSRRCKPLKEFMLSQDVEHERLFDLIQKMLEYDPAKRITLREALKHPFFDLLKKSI
Description: as §1, §2, §3, §4, §5, §6, §7, §8, §9, §10, §11, §12, §13

[3] = target: CLK2 (Homo sapiens, UniProt P49760); test: as above; assay type: biochemical
CLK2, sequence (P49760 whole entry): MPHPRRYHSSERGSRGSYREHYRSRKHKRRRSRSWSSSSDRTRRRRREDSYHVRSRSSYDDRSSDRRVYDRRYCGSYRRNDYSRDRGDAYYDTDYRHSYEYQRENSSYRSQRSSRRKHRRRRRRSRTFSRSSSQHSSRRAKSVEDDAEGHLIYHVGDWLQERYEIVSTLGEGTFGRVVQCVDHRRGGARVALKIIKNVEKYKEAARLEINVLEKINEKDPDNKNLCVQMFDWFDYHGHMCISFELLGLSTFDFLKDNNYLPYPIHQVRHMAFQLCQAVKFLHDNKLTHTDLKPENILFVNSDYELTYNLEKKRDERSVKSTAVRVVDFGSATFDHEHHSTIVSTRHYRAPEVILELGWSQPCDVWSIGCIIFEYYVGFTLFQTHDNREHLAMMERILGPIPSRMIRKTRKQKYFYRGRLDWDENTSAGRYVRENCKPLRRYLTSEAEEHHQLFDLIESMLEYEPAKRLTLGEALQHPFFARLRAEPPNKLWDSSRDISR
Description: as §1, §2, §3, §4, §5, §6, §7, §8, §9, §10, §11, §12, §13

[4] = target: CLK3 (Homo sapiens, UniProt P49761); test: as above; assay type: biochemical
CLK3, sequence (P49761 whole entry): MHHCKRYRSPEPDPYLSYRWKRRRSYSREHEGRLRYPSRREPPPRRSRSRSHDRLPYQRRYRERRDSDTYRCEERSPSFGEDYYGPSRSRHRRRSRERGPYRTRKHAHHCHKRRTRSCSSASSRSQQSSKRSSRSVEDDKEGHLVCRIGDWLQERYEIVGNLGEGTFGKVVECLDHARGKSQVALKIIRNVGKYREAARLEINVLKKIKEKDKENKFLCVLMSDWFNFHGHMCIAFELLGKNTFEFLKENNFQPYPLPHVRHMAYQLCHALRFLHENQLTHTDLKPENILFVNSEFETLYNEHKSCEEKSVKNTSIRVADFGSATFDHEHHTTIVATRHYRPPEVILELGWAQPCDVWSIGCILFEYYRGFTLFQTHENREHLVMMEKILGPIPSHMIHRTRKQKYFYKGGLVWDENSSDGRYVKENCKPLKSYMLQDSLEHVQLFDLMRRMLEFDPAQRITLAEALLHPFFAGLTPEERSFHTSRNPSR
Description: as §1, §2, §3, §4, §5, §6, §7, §8, §9, §10, §11, §12, §13

[5] = target: DYRK1A (Homo sapiens, UniProt Q13627); test: as above; assay type: biochemical
Description: as §1, §2, §3, §4, §5, §6, §7, §8, §9, §10, §11, §12, §13

[6] = tested on: ACLT model rats; test: In vivo pharmacodynamics in osteoarthritis rats, RT-qPCR of cartilage; parameters: species or system rat; details: for expression of ADAMTS5 in cartilage (RT-qPCR) / expression of IHH in cartilage (RT-qPCR) / expression of MMP3 in cartilage (RT-qPCR) / expression of MMP13 in cartilage (RT-qPCR): week 5, versus model group
Description: 1. 40 rats were evenly divided into 4 groups, namely, Control (normal rats injected with physiological saline into the joint cavity), Model (ACLT Model rats injected with physiological saline into the joint cavity), low-dose administration group (ACLT Model rats injected with LH020 (1.5 μg/kg) into the joint cavity), and high-dose administration group (ACLT Model rats injected with LH020 (6 μg/kg) into the joint cavity).
2. Knee osteoarthritis was induced by resection of anterior cruciate ligament of the rats (ACLT model).
3. The first week after surgery, physiological saline or LH-020 (1.5 μg/kg. 6 μg/kg) was injected into the joint cavity.
4. Week 5 after administration, cartilage was collected, and the expression of cartilage-associated proteases (MMP3, MMP13, ADAMTS5, IHH, etc.) was detected by RT-qPCR.

[7] = related art statement; cited from earlier work
[8] = read-out: Enzymatic activity (IC50) CLK2
[9] = read-out: Enzymatic activity (IC50) CLK3
[10] = read-out: Enzymatic activity (IC50) DYRK1A
[11] = high-dose group 6 μg/kg into the joint cavity, effect superior to low-dose group
[12] = low-dose group 1.5 μg/kg into the joint cavity

CLK4, sequence (Q9HAZ1 whole entry): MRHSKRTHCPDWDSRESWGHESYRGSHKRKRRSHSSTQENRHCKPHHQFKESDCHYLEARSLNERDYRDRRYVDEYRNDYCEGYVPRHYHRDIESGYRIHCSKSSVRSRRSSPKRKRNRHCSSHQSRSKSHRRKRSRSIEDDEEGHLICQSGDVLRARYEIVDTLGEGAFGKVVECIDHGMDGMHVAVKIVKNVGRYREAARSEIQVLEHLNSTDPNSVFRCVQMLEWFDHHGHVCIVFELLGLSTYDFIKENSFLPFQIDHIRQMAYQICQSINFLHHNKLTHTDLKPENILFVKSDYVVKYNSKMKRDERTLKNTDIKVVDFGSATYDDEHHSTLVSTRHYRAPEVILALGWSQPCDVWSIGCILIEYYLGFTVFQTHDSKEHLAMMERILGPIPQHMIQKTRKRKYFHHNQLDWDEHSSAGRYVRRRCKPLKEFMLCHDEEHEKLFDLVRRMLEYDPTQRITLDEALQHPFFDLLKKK

Structure (SMILES) | IC50 [1] [nM] | IC50 [2] [nM] | IC50 [3, 8] [nM] | IC50 [4, 9] [nM] | IC50 [5, 10] [nM] | also measured
CC(C)CC(=O)Nc1cncc(-c2ccc3[nH]nc(-c4nc(=O)c5ccccc5[nH]4)c3c2)c1 [LH-001] | 50 to 100 | < 10 | < 10 | < 10 | 10 to 50 | 
O=C(CC1CC1)Nc1cncc(-c2ccc3[nH]nc(-c4nc(=O)c5ccccc5[nH]4)c3c2)c1 [LH-003] | > 100 | < 10 | < 10 | < 10 | 50 to 100 | 
O=C(Nc1cncc(-c2ccc3[nH]nc(-c4nc(=O)c5ccccc5[nH]4)c3c2)c1)C1CCCC1 [LH-004] | 50 to 100 | < 10 | 10 to 50 | 10 to 50 | 10 to 50 | 
O=C(CC1CCCCC1)Nc1cncc(-c2ccc3[nH]nc(-c4nc(=O)c5ccccc5[nH]4)c3c2)c1 [LH-005] | 10 to 50 | 50 to 100 | 10 to 50 | 50 to 100 | 10 to 50 | 
O=c1nc(-c2n[nH]c3ccc(-c4cncc(NCC5CCCCC5)c4)cc23)[nH]c2ccccc12 [LH-006] | 10 to 50 | 10 to 50 | 10 to 50 | 50 to 100 | 10 to 50 | 
O=c1nc(-c2n[nH]c3ccc(-c4cncc(CN5CCC(F)(F)C5)c4)cc23)[nH]c2ccccc12 [LH-009] | 10 to 50 | < 10 | < 10 | < 10 | < 10 | 
O=c1nc(-c2n[nH]c3ccc(-c4cccnc4)cc23)[nH]c2ccccc12 [LH-010] | > 100 | 10 to 50 | < 10 | 10 to 50 | 10 to 50 | 
CN(C)Cc1cncc(-c2ccc3[nH]nc(-c4nc(=O)c5ccccc5[nH]4)c3c2)c1 [LH-011] | > 100 | 50 to 100 | < 10 | 50 to 100 | 50 to 100 | 
CC(C)(C)C(=O)Nc1cncc(-c2ccc3[nH]nc(-c4nc(=O)c5ccccc5[nH]4)c3c2)c1 [LH-015] | < 10 | 10 to 50 | < 10 | 10 to 50 | < 10 | 
O=C(Nc1cncc(-c2ccc3[nH]nc(-c4nc(=O)c5ccccc5[nH]4)c3c2)c1)C1CC(F)(F)C1 [LH-016] | 10 to 50 | < 10 | < 10 | 10 to 50 | 10 to 50 | 
CCS(=O)(=O)Nc1cncc(-c2ccc3[nH]nc(-c4nc(=O)c5ccccc5[nH]4)c3c2)c1 [LH-017] | 50 to 100 | < 10 | < 10 | > 100 | < 10 | 
O=c1nc(-c2n[nH]c3ccc(-c4cncc(O)c4)cc23)[nH]c2ccccc12 [LH-018] | < 10 | 50 to 100 | < 10 | 10 to 50 | < 10 | 
CN1CCN(Cc2cncc(-c3ccc4[nH]nc(-c5nc(=O)c6ccccc6[nH]5)c4c3)c2)CC1 [LH-019] | 50 to 100 | < 10 | < 10 | > 100 | 10 to 50 | 
CC(C)C[C@H](N)COc1cncc(-c2ccc3[nH]nc(-c4nc(=O)c5ccccc5[nH]4)c3c2)c1 [LH-020] | 10 to 50 | < 10 | < 10 | 50 to 100 | < 10 | IC50 ([3]; read-out: IC50 for CLK2): 2 nM; selectivity index for CLK3 ([4]; CLK3 versus CLK2): 41.5; IC50 ([4]; read-out: IC50 for CLK3): 81 nM; IC50 ([5]; read-out: IC50 for DYRK1A): 3 nM; chondroprotective effect ([6]; ACLT model rats, 1.5 and 6 μg/kg into the joint cavity): significant chondroprotective effect; expression of ADAMTS5 in cartilage (RT-qPCR) [6, 11]: significantly down-regulate; expression of IHH in cartilage (RT-qPCR) [6, 11]: significantly down-regulate; expression of MMP3 in cartilage (RT-qPCR) [6, 11]: significantly down-regulate; expression of MMP13 in cartilage (RT-qPCR) [6, 11]: significantly down-regulate; expression of ADAMTS5 in cartilage (RT-qPCR) [6, 12]: significantly down-regulate; expression of IHH in cartilage (RT-qPCR) [6, 12]: significantly down-regulate; expression of MMP3 in cartilage (RT-qPCR) [6, 12]: significantly down-regulate; expression of MMP13 in cartilage (RT-qPCR) [6, 12]: significantly down-regulate
CC(C)C[C@H](N)COc1cncc(-c2ccc3[nH]nc(-c4nc(=O)c5ccncc5[nH]4)c3c2)c1 [LH-037] | 10 to 50 | < 10 | 10 to 50 | < 10 | < 10 | 
CC(C)CC(=O)Nc1cncc(-c2ccc3[nH]nc(-c4cccnc4)c3c2)c1 [LH-039] | 50 to 100 | 50 to 100 | 10 to 50 | < 10 | 10 to 50 | 
CC(C)CC(=O)Nc1cncc(-c2ccc3[nH]nc(-c4ccncc4)c3c2)c1 [LH-040] | < 10 | 50 to 100 | < 10 | 10 to 50 | < 10 | 
CC(C)CC(=O)Nc1cncc(-c2ccc3[nH]nc(-c4ccc5ocnc5c4)c3c2)c1 [LH-041] | 10 to 50 | 10 to 50 | < 10 | < 10 | 10 to 50 | 
CC(C)CC(=O)Nc1cncc(-c2ccc3[nH]nc(C4=NCc5ccccc5N4)c3c2)c1 [LH-048] | 10 to 50 | < 10 | < 10 | < 10 | < 10 | 
FC1(F)CCN(Cc2cncc(-c3ccc4[nH]nc(C5=NCc6ccccc6N5)c4c3)c2)C1 [LH-049] | > 100 | 50 to 100 | < 10 | 10 to 50 | < 10 | 
CC(C)CC(=O)Nc1cncc(-c2ccc3[nH]nc(-c4nc5c(-c6cccc(F)c6)cncc5[nH]4)c3c2)c1 [SM04690] |  |  |  |  |  | water solubility [7]: poor
